{"source": "PubChem BioAssay AID1963844", "about": "(Molecular Pharmacology Branch, DTP, NCI, 2024)", "system": "422866-222-R5-J1-PDC complex spheroid viability", "assay": "Anticancer human tumor 422866-222-R5-J1-PDC patient-derived pancreatic adenocarcinoma cell line growth inhibition [POLQ]", "conditions": "for viability, T/C: stronger effect = lower value", "experimental": "Multicellular complex tumor spheroid response to Polymerase (POL) inhibitors (novobiocin, ART-558, RP6685) in combination with a variety of drugs and investigational agents in selected tumor cell lines\nThe POL inhibitors (novobiocin, ART-558, and RP6685) were evaluated both individually and in combination with standard of care and investigational anticancer small molecules within a complex spheroid model of solid tumors. . Complex spheroids include a stromal component modeled by human endothelial cells (HUVEC) and fibroblasts modeled by human mesenchymal stem cells (MSCs). The concentration ranges selected for each drug and investigational agent were based upon clinically achievable concentrations if the clinical Cmax of the agent was known.\nCompounds. The drugs and investigational agents: novobiocin (NSC847541), ART-558 (NSC835418), RP-6685 (NSC848927), peposertib (NSC802822), ceralasertib (NSC780249), elimusertib (NSC800525), camonsertib (NSC841442), AZD-1390 (NSC803789), olaparib (NSC753686), talazoparib (NSC767125), rucaparib (NSC756644), sotorasib (NSC818433), MRTX-1133 (NSC836407), SN-38 (NSC673596), topotecan (NSC609699), epotoside (NSC141540), doxorubicin (NSC123127), gemcitabine (NSC613327), 5-fluorouracil (NSC19893), paclitaxel (NSC125973), vemurafenib (NSC761431), MSA-2 (NSC828583), SN-011 (NSC837082), adavosertib (NSC754352), prexasertib (NSC758257), carboplatin (NSC241240) and oxaliplatin (NSC266046), were obtained from the National Cancer Institute (NCI) Developmental Therapeutics Program Chemical Repository (21). The FDA-approved anticancer drug set is available from the Developmental Therapeutics Program at https://dtp.cancer.gov/organization/dscb/obtaining/. […] The stock solutions were prepared in dimethyl sulfoxide (DMSO, Sigma-Aldrich, St. Louis, MO, cat. D2650), except for the platinum compounds which were prepared in saline (Quality Biological, Gaithersburg, MD, cat. 114-055-101), at 800-fold the tested concentration and stored at -70 degrees C prior to their use. All drugs and investigational agents were tested over a range starting from a high concentration at or near the clinical Cmax and decreasing in half-log increments. If the clinical Cmax for an agent had not been determined, the highest concentration tested was 10 microM, except for SN-38, which was tested at a high concentration of 1 microM.\nCell Culture. All cells were maintained in an incubator at 37 degrees C and 5% CO2 with 95% humidity. The PDC lines were cultured according to standard operating procedures established by the NCI PDMR (https://pdmr.cancer.gov). Table 3 of the manuscript, lists the cell lines along with the number of the three cell types plated to form the mct-spheroids and media for tumor cell growth. After thawing, all PDC lines, except 997537-175-T-J1-PDC and 415267-285-R-J2-PDC, were cultured in Matrigel-coated flasks prepared with a working solution of 1X Ham's F-12 nutrient mix, without supplementation (Thermo Fisher Scientific, cat. 11765054), 100 U/mL penicillin-streptomycin (Thermo Fisher Scientific, cat. 15140122), and 2.5% Matrigel (Corning Inc., Corning, NY, cat. 354248) for the first three passages. The two PDC lines 997537-175-T-J1-PDC and 415267-285-R-J2-PDC were cultured on uncoated flasks. The 857933-349-R-J2-PDC line was cultured in 6C/Colon 1B media containing advanced DMEM/F-12 (Thermo Fisher Scientific, cat. 12634028), 10 mM HEPES (Thermo Fisher Scientific, cat. 15630080), 1X GlutaMAX supplement (Thermo Fisher Scientific, cat. 35050061), 0.1 mg/mL primocin (InvivoGen, San Diego, CA, cat. ant-pm-2), 10% defined fetal bovine serum, heat inactivated (HyClone Laboratories Inc., Logan, UT, cat. SH30070.03HI), 50% L-WRN conditioned media (ATCC, cat. CRL-3276), 1.25 mM N-Acetyl-L-cysteine (Sigma-Aldrich, cat. A9165), 10 mM nicotinamide (Sigma-Aldrich, cat. N0636), 1X B-27 supplement (Thermo Fisher Scientific, cat. 17504044), 1X N-2 supplement (Thermo Fisher Scientific, cat. […]", "note": "Several values for one entry are separate records, joined by “and”; a condition that tells them apart may be missing. Identical values can stand only once."}
{"molecule": "CC1COCCN1c1cc(C2(O)CC3CCC(C2)O3)c2cnn(-c3ccn[nH]3)c2n1", "note": "(centres undefined);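 further: spheroids exposed to compounds for one week before readout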;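 on viability, T/C: percent of DMSO vehicle wells luminescence so 100% = untreated viability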", "values": [{"measurement": "viability, T/C", "setting": "compound 0.0316 µM", "value": "81.2% and 74.1% and 69.6%"}, {"measurement": "viability, T/C", "setting": "compound 0.1 µM", "value": "53.5% and 43.4% and 42.3%"}, {"measurement": "viability, T/C", "setting": "compound 0.316 µM", "value": "50.6% and 44.2% and 35.5%"}, {"measurement": "viability, T/C", "setting": "compound 1 µM", "value": "84% and 70.7% and 73.2%"}, {"measurement": "viability, T/C", "setting": "compound 3.16 µM", "value": "80.6% and 79% and 77.3%"}, {"measurement": "viability, T/C", "setting": "compound 10 µM", "value": "65.8% and 78.8% and 62.6%"}, {"measurement": "IC50", "setting": "curve of compound", "value": "> 10", "unit": "µM"}]}
{"molecule": "O=C(c1cc(Cc2n[nH]c(=O)c3ccccc23)ccc1F)N1CCN(C(=O)C2CC2)CC1", "values": [{"measurement": "viability, T/C", "setting": "compound 0.0316 µM", "value": "98.1% and 101% and 83.2%"}, {"measurement": "viability, T/C", "setting": "compound 0.1 µM", "value": "97.3% and 102% and 84.5%"}, {"measurement": "viability, T/C", "setting": "compound 1 µM", "value": "99.5% and 102% and 91.3%"}, {"measurement": "IC50", "setting": "curve of compound", "value": "> 10", "unit": "µM"}]}
{"molecule": "CC1COCCN1c1cc(C2(S(C)(=N)=O)CC2)nc(-c2ccnc3[nH]ccc23)n1", "note": "(centres undefined) + Cc1cccc(N(C)C(=O)C2C(O)CCN2c2nc(C)cc(C(F)(F)F)c2C#N)c1", "values": [{"measurement": "IC50", "setting": "curve of first compound, second compound 0.0316 µM", "value": "> 10", "unit": "µM"}, {"measurement": "IC50", "setting": "curve of first compound, second compound 0.1 µM", "value": 2.93, "unit": "µM"}, {"measurement": "IC50", "setting": "curve of first compound, second compound 0.316 µM", "value": 3.36, "unit": "µM"}, {"measurement": "IC50", "setting": "curve of first compound, second compound 1 µM", "value": 4.21, "unit": "µM"}, {"measurement": "IC50", "setting": "curve of first compound, second compound 3.16 µM", "value": 5.46, "unit": "µM"}, {"measurement": "IC50", "setting": "curve of first compound, second compound 10 µM", "value": 4.41, "unit": "µM"}, {"measurement": "viability, T/C", "setting": "second compound 0.0316 µM, first compound 0.0316 µM", "value": 92.5, "unit": "%"}, {"measurement": "viability, T/C", "setting": "second compound 0.0316 µM, first compound 0.1 µM", "value": 93.2, "unit": "%"}, {"measurement": "viability, T/C", "setting": "second compound 0.0316 µM, first compound 0.316 µM", "value": 98.9, "unit": "%"}, {"measurement": "viability, T/C", "setting": "second compound 0.0316 µM, first compound 1 µM", "value": 70.1, "unit": "%"}, {"measurement": "viability, T/C", "setting": "second compound 0.0316 µM, first compound 3.16 µM", "value": 50.9, "unit": "%"}, {"measurement": "viability, T/C", "setting": "second compound 0.0316 µM, first compound 10 µM", "value": 50.5, "unit": "%"}, {"measurement": "viability, T/C", "setting": "second compound 0.1 µM, first compound 0.0316 µM", "value": 101, "unit": "%"}, {"measurement": "viability, T/C", "setting": "second compound 0.1 µM, first compound 0.1 µM", "value": 121, "unit": "%"}, {"measurement": "viability, T/C", "setting": "second compound 0.1 µM, first compound 0.316 µM", "value": 98.9, "unit": "%"}, {"measurement": "viability, T/C", "setting": "second compound 0.1 µM, first compound 1 µM", "value": 74.4, "unit": "%"}, {"measurement": "viability, T/C", "setting": "second compound 0.1 µM, first compound 3.16 µM", "value": 45.8, "unit": "%"}, {"measurement": "viability, T/C", "setting": "second compound 0.1 µM, first compound 10 µM", "value": 46.3, "unit": "%"}, {"measurement": "viability, T/C", "setting": "second compound 0.316 µM, first compound 0.0316 µM", "value": 110, "unit": "%"}, {"measurement": "viability, T/C", "setting": "second compound 0.316 µM, first compound 0.1 µM", "value": 110, "unit": "%"}, {"measurement": "viability, T/C", "setting": "second compound 0.316 µM, first compound 0.316 µM", "value": 90.3, "unit": "%"}, {"measurement": "viability, T/C", "setting": "second compound 0.316 µM, first compound 1 µM", "value": 83.2, "unit": "%"}, {"measurement": "viability, T/C", "setting": "second compound 0.316 µM, first compound 3.16 µM", "value": 47.1, "unit": "%"}, {"measurement": "viability, T/C", "setting": "second compound 0.316 µM, first compound 10 µM", "value": 33.8, "unit": "%"}, {"measurement": "viability, T/C", "setting": "second compound 1 µM, first compound 0.0316 µM", "value": 108, "unit": "%"}, {"measurement": "viability, T/C", "setting": "second compound 1 µM, first compound 0.1 µM", "value": 97.6, "unit": "%"}, {"measurement": "viability, T/C", "setting": "second compound 1 µM, first compound 0.316 µM", "value": 91.5, "unit": "%"}, {"measurement": "viability, T/C", "setting": "second compound 1 µM, first compound 1 µM", "value": 76.8, "unit": "%"}, {"measurement": "viability, T/C", "setting": "second compound 1 µM, first compound 3.16 µM", "value": 47.5, "unit": "%"}, {"measurement": "viability, T/C", "setting": "second compound 1 µM, first compound 10 µM", "value": 45.8, "unit": "%"}, {"measurement": "viability, T/C", "setting": "second compound 3.16 µM, first compound 0.0316 µM", "value": 103, "unit": "%"}, {"measurement": "viability, T/C", "setting": "second compound 3.16 µM, first compound 0.1 µM", "value": 103, "unit": "%"}, {"measurement": "viability, T/C", "setting": "second compound 3.16 µM, first compound 0.316 µM", "value": 90.6, "unit": "%"}, {"measurement": "viability, T/C", "setting": "second compound 3.16 µM, first compound 1 µM", "value": 73.8, "unit": "%"}, {"measurement": "viability, T/C", "setting": "second compound 3.16 µM, first compound 3.16 µM", "value": 60.4, "unit": "%"}, {"measurement": "viability, T/C", "setting": "second compound 3.16 µM, first compound 10 µM", "value": 40.3, "unit": "%"}, {"measurement": "viability, T/C", "setting": "second compound 10 µM, first compound 0.0316 µM", "value": 100, "unit": "%"}, {"measurement": "viability, T/C", "setting": "second compound 10 µM, first compound 0.1 µM", "value": 82, "unit": "%"}, {"measurement": "viability, T/C", "setting": "second compound 10 µM, first compound 0.316 µM", "value": 93.1, "unit": "%"}, {"measurement": "viability, T/C", "setting": "second compound 10 µM, first compound 1 µM", "value": 59.2, "unit": "%"}, {"measurement": "viability, T/C", "setting": "second compound 10 µM, first compound 3.16 µM", "value": 59.5, "unit": "%"}, {"measurement": "viability, T/C", "setting": "second compound 10 µM, first compound 10 µM", "value": 37.4, "unit": "%"}]}
{"molecule": "Nc1ccc(C#CCN(C(=O)Cc2ncc(C(F)(F)F)cc2C(F)(F)F)c2ccc(F)cc2)nn1", "values": [{"measurement": "viability, T/C", "setting": "compound 0.0316 µM", "value": "93.7% [middle of 13 runs]"}, {"measurement": "viability, T/C", "setting": "compound 0.1 µM", "value": "97.3% [middle of 13 runs]"}, {"measurement": "viability, T/C", "setting": "compound 1 µM", "value": "97.2% [middle of 13 runs]"}, {"measurement": "viability, T/C", "setting": "compound 3.16 µM", "value": "105% [middle of 13 runs]"}, {"measurement": "viability, T/C", "setting": "compound 10 µM", "value": "114% [middle of 13 runs]"}, {"measurement": "IC50", "setting": "compound alone, run of 12/05/2023", "value": "> 10", "unit": "µM"}]}
